Experimental data: publication PMC12320245 (International Journal of Biological Sciences, 2025)

System: astrocytes
Test: Lysosomal pH detection (DND-189 fluorescence)
Type: cell-based

O=S(=O)(NCCNC/C=C/c1ccc(Br)cc1)c1cccc2cnccc12 [H-89]
lysosomal pH (DND-189 fluorescence), co-treatment with PKA inhibitor (BafA1 + AMX + H-89): abolished the lysosomal acidification effect of AMX

CO/C1=C\C(C)=C\[C@@H](C)[C@@H](O)[C@@H](C)C/C(C)=C/C=C/[C@H](OC)[C@@H]([C@@H](C)[C@@H](O)[C@H](C)[C@@]2(O)C[C@@H](O)[C@H](C)[C@@H](C(C)C)O2)OC1=O [bafilomycin A1]
lysosomal pH (DND-189 fluorescence) (100 nM BafA1, 1-hour exposure): markedly alkalinized lysosomes

Nc1ncnc2c1ncn2[C@@H]1O[C@@H]2COP(=O)(O)O[C@H]2[C@H]1O [cAMP, cyclic adenosine monophosphate]
lysosomal pH (DND-189 fluorescence), reversal of BafA1 effect (300 μM cAMP with 100 nM BafA1): effectively reversed BafA1-induced alkalization
